Measurements taken from patent publication US20260285853A1, “COMPOUNDS AND METHODS FOR MODULATING SPLICING” (REMIX THERAPEUTICS INC., priority 2023, published 2026).
Read-outs that look alike come from different tables or passages of the source.

How the values were obtained:
Assay type in all cases: cell-based
MYB mRNA [1] = test: Splicing RT-qPCR assay (THP), Table 2A
HTT mRNA [2] = test: Splicing RT-qPCR assay (THP), Table 2A
[3] = tested on: SH-SY5Y (human neuroblastoma) cells; test: Cell viability, Cell Titer Glo 2.0 assay; settings: read-out: Viability SHSY5Y.3 GI50
Method in brief: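 Steps: serial DMSO dilution of compound, 1:100 dilution into medium, addition to cells (0.1% DMSO final). Incubate 72 h at 37 °C, 5% CO2. Assay with CellTiter-Glo 2.0 reagent.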

MYB mRNA [4] = test: Gene panel canonical junction qPCR assay, decrease in CJ mRNA, Table 3
Method in brief: (§1)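 IC50 is the concentration giving 50% response in decrease of the canonical junction transcript, fitted with a 4-parameter logistic equation. Transcripts were quantified by RT-qPCR in A673 or K562 cells after 24 h exposure to compounds dosed up to 10 uM in 3-fold steps.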

HTT mRNA [5] = test: as above
Method in brief: as §1

[6] = Table 2A (THP), AJ mRNA increase, read-out: MYB AJ (increase in alternative junction mRNA, AC50)
[7] = Table 2A (THP), CJ mRNA decrease, read-out: MYB CJ (decrease in canonical junction mRNA, IC50)
[8] = Table 2A (THP), AJ mRNA increase, read-out: HTT AJ (increase in alternative junction mRNA, AC50)
[9] = Table 2A (THP), CJ mRNA decrease, read-out: HTT CJ (decrease in canonical junction mRNA, IC50)
[10] = decrease in canonical junction (CJ) mRNA, gene panel qPCR, Table 3
[11] = Table 2A, THP, MYB alternative junction (AJ) mRNA, read-out: MYB AJ (AC50, increase in alternative junction mRNA)
[12] = Table 2A, THP, MYB canonical junction (CJ) mRNA, read-out: MYB CJ (IC50, decrease in canonical junction mRNA)
[13] = Table 2A, THP, HTT alternative junction (AJ) mRNA, read-out: HTT AJ (AC50, increase in alternative junction mRNA)
[14] = Table 2A, THP, HTT canonical junction (CJ) mRNA, read-out: HTT CJ (IC50, decrease in canonical junction mRNA)
[15] = decrease in CJ mRNA levels, canonical junction qPCR, gene panel

IC50 (MYB mRNA [1]; [7]) [µM]	IC50 (HTT mRNA [2]; [9]) [µM]	GI50 [3] [µM]	IC50 (MYB mRNA [4]; [10]) [µM]	IC50 (HTT mRNA [5]; [10]) [µM]	IC50 (MYB mRNA [1]; [12]) [µM]	IC50 (HTT mRNA [2]; [14]) [µM]	IC50 (MYB mRNA [4]; [15]) [µM]	IC50 (HTT mRNA [5]; [15]) [µM]	SMILES	AC50 (MYB mRNA [1]; [6]) [µM]	AC50 (HTT mRNA [2]; [8]) [µM]	AC50 (MYB mRNA [1]; [11]) [µM]	AC50 (HTT mRNA [2]; [13]) [µM]
> 10	> 10	> 10	> 10	> 10					CNCC1CCCN(c2ccc(C(=O)Nc3cn4cc(C)nc(C)c4n3)c3nn(C)cc23)C1 (stereo not shown) [Compound 534]	> 10	> 10		
		1 to 10			0.1 to 1	> 10	0.1 to 1	> 10	C=CCNC1CCN(c2ccc(C(=O)Nc3cc(CO)c4nn(C)cc4c3)c3nn(C)cc23)CC1 [Compound 794, 4-[4-(allylamino)-1-piperidyl]-N-[7-(hydroxymethyl)-2-methyl-indazol-5-yl]-2-methyl-indazole-7-carboxamide]			1 to 10	> 10
		1 to 10			> 10	> 10	> 10	> 10	Cc1cn2nc(NC(=O)c3ccc(N4CCC(NC5CC5)CC4)c4cn(C)nc34)cc(CNS(C)(=O)=O)c2n1 [Compound 842]			> 10	> 10
> 10	> 10	0.1 to 1	> 10	> 10					Cc1cn2cc(NC(=O)c3c(F)cc(NCC4CCNCC4)c4cn(C)nc34)nc2c(C)n1 [Compound 465, N-(6,8-dimethylimidazo[1,2-a]pyrazin-2-yl)-6-fluoro-2-methyl-4-(4-piperidylmethylamino)indazole-7-carboxamide]	> 10	> 10		
1 to 10	> 10	1 to 10	1 to 10	> 10					COc1c(NC(=O)c2c(F)cc(N3CCC(NC4CC4)CC3)c3cn(C)nc23)cn2cc(C)nc2c1C [Compound 397, 4-[4-(cyclopropylamino)-1-piperidy1]-6-fluoro-N-(7-methoxy-2,8-dimethyl-imidazo[1,2-a]pyridin-6-y1)-2-methyl-indazole-7-carboxamide]	1 to 10	> 10		
< 0.1	> 10	0.1 to 1	< 0.1	> 10					Cc1cn2cc(NC(=O)c3c(F)cc(N4CCC(NC5CC5)CC4)c4cn(C)nc34)c(Oc3ccccc3)cc2n1 [Compound 417, 4-[4-(cyclopropylamino)-1-piperidyl]-6-fluoro-2-methyl-N-(2-methyl-7-phenoxyimidazo[1,2-a]pyridin-6-yl)-indazole-7-carboxamide]	< 0.1	1 to 10		
		1 to 10			0.1 to 1	1 to 10	0.1 to 1	1 to 10	Cn1cc2cc(NC(=O)c3ccc(N4CCC(NC5CC5)CC4)c4cn(C)nc34)cc(CNc3ncccn3)c2n1 [Compound 861, 4-[4-(cyclopropylamino)-1-piperidyl]-2-methyl-N-[2-methyl-7-[(pyrimidin-2-ylamino)methyl]indazol-5-yl]indazole-7-carboxamide]			0.1 to 1	> 10
		0.1 to 1			< 0.1	> 10	< 0.1	> 10	COc1nc2c(C(=O)Nc3cc(C#N)c4nn(C)cc4c3)ccc(N3C[C@H](C)N[C@@H](C)C3)c2s1 [Compound 757, N-(7-cyano-2-methyl-indazol-5-yl)-7-[(3S,5S)-3,5-dimethylpiperazin-1-yl]-2-methoxy-1,3-benzothiazole-4-carboxamide]			< 0.1	1 to 10
		> 10			1 to 10	> 10	1 to 10	> 10	CCNC1CCN(c2ccc(C(=O)Nc3cc(CNS(C)(=O)=O)c4nc(C)cn4c3)c3nn(C)cc23)CC1 [Compound 817, 4-[4-(ethylamino)-1-piperidyl]-N-[8-(methanesulfonamidomethyl)-2-methyl-imidazo[1,2-a]pyridin-6-yl]-2-methyl-indazole-7-carboxamide]			1 to 10	> 10
		0.1 to 1			< 0.1	0.1 to 1	< 0.1	0.1 to 1	COc1cc2nn(C)cc2cc1NC(=O)c1ccc(N2CCC(NC3CC3)CC2)c2cc(CF)nn12 [Compound 625, 4-[4-(cyclopropylamino)-1-piperidyl]-2-(fluoromethyl)-N-(6-methoxy-2-methyl-indazol-5-yl)pyrazolo[1,5-a]-pyridine-7-carboxamide]			< 0.1	0.1 to 1
> 10	> 10	> 10	> 10	> 10					COc1ccncc1NC(=O)c1c(F)cc(N2CCC(NC3CC3)CC2)c2cn(C)nc12 [Compound 414, 4-[4-(cyclopropylamino)-1-piperidyl]-6-fluoro-N-(4-methoxy-3-pyridyl)-2-methyl-indazole-7-carboxamide]	> 10	> 10		
1 to 10	> 10	> 10	1 to 10	> 10					COc1cc2nn(C)cc2cc1NC(=O)c1c(F)cc(N2CC3(CNC3)C2)c2cn(C)nc12 [Compound 455, 4-(2,6-diazaspiro[3.3]-heptan-2-yl)-6-fluoro-N-(6-methoxy-2-methyl-indazol-5-yl)-2-methyl-indazole-7-carboxamide]	1 to 10	> 10		
		> 10			> 10	> 10	> 10	> 10	COc1cc2nn(C)cc2cc1NC(=O)c1c(F)cc(N2CCC(NC3CC3)CC2)c2cc(C)nn12 [Compound 624, 4-[4-(cyclopropylamino)-1-piperidyl]-6-fluoro-N-(6-methoxy-2-methyl-indazol-5-yl)-2-methyl-pyrazolo[1,5-a]pyridine-7-carboxamide]			> 10	> 10
0.1 to 1	0.1 to 1	1 to 10	0.1 to 1	0.1 to 1					COc1cc2nn(C)cc2cc1NC(=O)c1ccc(OC2CCNC2)c2cn(C)nc12 (stereo not shown) [Compound 567]	0.1 to 1	1 to 10		
> 10	> 10	1 to 10	> 10	> 10					Cc1cn2cc(NC(=O)c3ccc(N4CCC(NC5CC5)CC4)c4cn(C)nc34)c(OC(C)C)c2c(C)n1 [Compound 569, 4-[4-(cyclopropylamino)-1-piperidyl]-N-(8-isopropoxy-1,3-dimethyl-pyrrolo[1,2-a]pyrazin-7-yl)-2-methyl-indazole-7-carboxamide]	> 10	> 10		
		0.1 to 1			< 0.1	1 to 10	< 0.1	1 to 10	COc1cc2c(N3C[C@H](C)N[C@@H](C)C3)ccc(C(=O)Nc3cc4cn(C)nc4cc3OC)n2n1 [Compound 698, 4-[(3S,5S)-3,5-dimethylpiperazin-1-yl]-2-methoxy-N-(6-methoxy-2-methyl-indazol-5-yl) pyrazolo[1,5-a]pyridine-7-carboxamide]			< 0.1	1 to 10
